Test results from the supplement of paper PMC4862054.

What was measured:
Conditions in all cases: incubation time: 72 h
[1] = tested on: BT-474; test: normalised response (% of control), CellTiter-Glo; higher = more viable cells (100 = DMSO, 0 = benzethonium chloride kill control)
In short: (§1)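 After 72 h with compound in 384-well plates, breast cancer cell lines seeded as 20 µl suspension were read for CellTox Green fluorescence at 485/520 nm. CellTiter-Glo luminescence was then read after 10 min at room temperature. Compound was present at 5 concentrations in 10-fold steps over a 10,000-fold range set per compound, and plates were normalised to 0.1 % DMSO (100) and a positive kill control (0). Values are normalised signals, each at a single concentration.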

[2] = tested on: BT-549; test: as above
In short: as §1

[3] = tested on: CAL-120; test: as above
In short: as §1

[4] = tested on: CAL-148; test: as above
In short: as §1

[5] = tested on: CAL-51; test: as above
In short: as §1

[6] = tested on: CAL-85-1; test: as above
In short: as §1

[7] = tested on: DU-4475; test: as above
In short: as §1

[8] = tested on: HCC1143; test: as above
In short: as §1

[9] = tested on: HCC1599; test: as above
In short: as §1

[10] = tested on: HCC1937; test: as above
In short: as §1

[11] = tested on: HDQ-P1; test: as above
In short: as §1

[12] = tested on: Hs578T; test: as above
In short: as §1

[13] = tested on: MCF-10A; test: as above
In short: as §1

[14] = tested on: MDA-MB-231; test: as above
In short: as §1

[15] = tested on: MDA-MB-436; test: as above
In short: as §1

[16] = tested on: MDA-MB-453; test: as above
In short: as §1

[17] = tested on: MDA-MB-468; test: as above
In short: as §1

[18] = tested on: MFM-223; test: as above
In short: as §1

[19] = tested on: SK-BR-3; test: as above
In short: as §1

[20] = tested on: BT-474; test: normalised viability (% of control), CellTiter-Blue; higher = more viable cells (100 = DMSO, 0 = benzethonium chloride kill control)
In short: (§2)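 The reported figure is normalised viability at a single listed concentration of the series. Breast cancer cell lines (20 µl suspension) went onto 384-well plates holding compound in 5 µl medium for 72 h. CellTiter-Blue (2.5 µl, 2 h, 37 °C) was read by fluorescence at 560/590 nm, and each plate was scaled to vehicle at 100 and a positive kill control at 0.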

[21] = tested on: BT-549; test: as above
In short: as §2

[22] = tested on: CAL-120; test: as above
In short: as §2

[23] = tested on: CAL-148; test: as above
In short: as §2

[24] = tested on: CAL-51; test: as above
In short: as §2

[25] = tested on: CAL-85-1; test: as above
In short: as §2

[26] = tested on: DU-4475; test: as above
In short: as §2

[27] = tested on: HCC1143; test: as above
In short: as §2

[28] = tested on: HCC1599; test: as above
In short: as §2

[29] = tested on: HCC1937; test: as above
In short: as §2

[30] = tested on: HDQ-P1; test: as above
In short: as §2

[31] = tested on: Hs578T; test: as above
In short: as §2

[32] = tested on: MDA-MB-231; test: as above
In short: as §2

[33] = tested on: MDA-MB-436; test: as above
In short: as §2

[34] = tested on: MDA-MB-453; test: as above
In short: as §2

[35] = tested on: MDA-MB-468; test: as above
In short: as §2

[36] = tested on: MFM-223; test: as above
In short: as §2

[37] = tested on: SK-BR-3; test: as above
In short: as §2

Row | SMILES | normalised response [1] | normalised response [2] | normalised response [3] | normalised response [4] | normalised response [5] | normalised response [6] | normalised response [7] | normalised response [8] | normalised response [9] | normalised response [10] | normalised response [11] | normalised response [12] | normalised response [13] | normalised response [14] | normalised response [15] | normalised response [16] | normalised response [17] | normalised response [18] | normalised response [19] | normalised viability [20] | normalised viability [21] | normalised viability [22] | normalised viability [23] | normalised viability [24] | normalised viability [25] | normalised viability [26] | normalised viability [27] | normalised viability [28] | normalised viability [29] | normalised viability [30] | normalised viability [31] | normalised viability [32] | normalised viability [33] | normalised viability [34] | normalised viability [35] | normalised viability [36] | normalised viability [37]
1 | CC/C(=C(\c1ccccc1)c1ccc(OCCN(C)C)cc1)c1ccccc1 [Tamoxifen] (1 nM) | 105% | 96.4% | 99% | 103% | 99.3% | 101% | 98.6% | 109% | 94.3% | 102% | 103% | 102% | 111% | 106% | 109% | 110% | 104% | 102% | 103% | 81.7% | 81.6% | 104% | 113% | 90.2% | 110% | 104% | 104% | 84.7% | 88.8% | 105% | 118% | 95.1% | 96% | 107% | 106% | 93.3% | 102%
2 | COc1cc2c(N3CCN(C(=O)Nc4ccc(OC(C)C)cc4)CC3)ncnc2cc1OCCCN1CCCCC1 [Tandutinib] (0.1 nM) | 107% | 99.8% | 101% | 102% | 82.2% | 101% | 104% | 97.9% | 113% | 92.9% | 111% | 97.3% | 95.5% | 104% | 97.3% | 96.1% | 104% | 105% | 96.7% | 114% | 111% | 98.7% | 107% | 107% | 101% | 109% | 103% | 98% | 67.1% | 116% | 120% | 85.3% | 104% | 102% | 105% | 96.7% | 106%
3 | Cn1nnc2c(C(N)=O)ncn2c1=O [Temozolomide] (1 nM) | 95.4% | 104% | 99.5% | 96.2% | 92.3% | 97.5% | 97.5% | 95% | 90% | 99.3% | 96.3% | 99.8% | 104% | 94.8% | 92.3% | 97.6% | 100% | 94.9% | 98.3% | 86.8% | 100% | 107% | 103% | 95.5% | 103% | 128% | 118% | 109% | 113% | 96.6% | 102% | 93% | 95.7% | 98.1% | 96% | 102% | 126%
4 | CC[C@@H]1C(=O)N(C)c2cnc(Nc3ccc(C(=O)N[C@H]4CC[C@H](N5CCN(CC6CC6)CC5)CC4)cc3OC)nc2N1C(C)C [Volasertib] (0.1 nM) | 97.7% | 104% | 98.5% | 93% | 111% | 102% | 95.2% | 90.6% | 96.6% | 98.9% | 93.2% | 105% | 88.1% | 100% | 80.4% | 108% | 97.3% | 96.2% | 103% | 107% | 108% | 92.4% | 110% | 116% | 88.4% | 103% | 96.3% | 88.5% | 101% | 94.3% | 102% | 110% | 117% | 101% | 121% | 92% | 118%
